The values that follow are results of earlier work, collected in US10689308B2, “Solvent for thiophosphoric triamide or dicyandiamide solutions, and related methods” (RHODIA OPERATIONS, priority 2014, dated 2020).

For the series the following is noted: dicyandiamide in a solid form; background statement.

With `N#CNC(=N)N` [Dicyandiamide], the solubility in water entry was “about 41 grams per liter”.
